# Assay results: ChEMBL document CHEMBL1201862, “PubChem BioAssay data set” (2004)
# Active and inactive are the calls of the source.
# Experiments:
# Cytochrome P450 2C19 = Cytochrome P450 2C19 (Homo sapiens, UniProt P33261); experiment: Cytochrome panel assay with activity outcomes. Panel member name: p450-cyp2c19 Compounds with AC50 equal or less than 10 uM are considered active; assay type: functional; conditions: read-out: AC50
# Cytochrome P450 3A4 = Cytochrome P450 3A4 (Homo sapiens, UniProt P08684);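 note: CYP3A4 tested as one member of a cytochrome P450 panel screen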
# Sequence of Cytochrome P450 3A4 (P08684 whole entry): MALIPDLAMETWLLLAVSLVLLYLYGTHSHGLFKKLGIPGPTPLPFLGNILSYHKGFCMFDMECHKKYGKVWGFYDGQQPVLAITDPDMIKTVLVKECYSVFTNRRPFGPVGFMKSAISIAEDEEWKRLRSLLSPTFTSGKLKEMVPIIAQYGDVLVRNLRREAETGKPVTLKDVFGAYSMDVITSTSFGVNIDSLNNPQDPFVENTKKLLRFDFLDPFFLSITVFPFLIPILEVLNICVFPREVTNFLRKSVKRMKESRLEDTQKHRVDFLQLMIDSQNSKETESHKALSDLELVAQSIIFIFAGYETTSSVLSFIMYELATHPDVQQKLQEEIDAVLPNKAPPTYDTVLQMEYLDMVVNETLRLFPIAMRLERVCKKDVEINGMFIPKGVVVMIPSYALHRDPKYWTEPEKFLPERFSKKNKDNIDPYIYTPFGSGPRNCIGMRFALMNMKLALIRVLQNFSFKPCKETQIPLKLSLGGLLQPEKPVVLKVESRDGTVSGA
# Cytochrome P450 2C9 = Cytochrome P450 2C9 (Homo sapiens, UniProt P11712)
# Sequence of Cytochrome P450 2C9 (P11712 whole entry): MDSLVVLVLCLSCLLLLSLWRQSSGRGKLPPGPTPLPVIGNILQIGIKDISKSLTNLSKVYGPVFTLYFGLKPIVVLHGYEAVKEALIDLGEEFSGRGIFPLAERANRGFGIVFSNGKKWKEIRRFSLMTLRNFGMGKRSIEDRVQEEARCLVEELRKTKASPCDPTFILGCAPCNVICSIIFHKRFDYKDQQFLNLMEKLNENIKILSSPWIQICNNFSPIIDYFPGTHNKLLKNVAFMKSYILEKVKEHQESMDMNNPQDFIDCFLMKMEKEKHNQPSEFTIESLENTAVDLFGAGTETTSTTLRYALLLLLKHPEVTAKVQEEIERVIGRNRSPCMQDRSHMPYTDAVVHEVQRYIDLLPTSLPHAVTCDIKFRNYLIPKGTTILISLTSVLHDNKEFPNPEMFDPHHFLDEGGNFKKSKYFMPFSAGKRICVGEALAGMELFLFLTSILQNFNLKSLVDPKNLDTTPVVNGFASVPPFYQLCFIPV
# Caspase-6 = molecular target: T1, Caspase-6 (Homo sapiens, UniProt P55212); experiment: human caspase-6 inhibitors, dose response, biochemical, VEID-R110 fluorescence, cherry-pick (AID 720632)
# T1 sequence (P55212 whole entry): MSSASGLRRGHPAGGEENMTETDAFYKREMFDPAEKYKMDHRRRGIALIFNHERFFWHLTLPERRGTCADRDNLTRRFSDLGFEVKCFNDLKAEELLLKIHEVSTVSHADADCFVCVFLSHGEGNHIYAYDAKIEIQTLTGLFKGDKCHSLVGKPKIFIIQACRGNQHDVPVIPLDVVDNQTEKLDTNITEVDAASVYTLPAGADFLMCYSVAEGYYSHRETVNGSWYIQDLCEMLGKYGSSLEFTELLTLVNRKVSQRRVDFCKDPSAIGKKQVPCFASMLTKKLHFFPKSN
# [1] = molecular target: Glyceraldehyde-3-phosphate dehydrogenase (Homo sapiens, UniProt P04406)
# Sequence of Glyceraldehyde-3-phosphate dehydrogenase (P04406 whole entry): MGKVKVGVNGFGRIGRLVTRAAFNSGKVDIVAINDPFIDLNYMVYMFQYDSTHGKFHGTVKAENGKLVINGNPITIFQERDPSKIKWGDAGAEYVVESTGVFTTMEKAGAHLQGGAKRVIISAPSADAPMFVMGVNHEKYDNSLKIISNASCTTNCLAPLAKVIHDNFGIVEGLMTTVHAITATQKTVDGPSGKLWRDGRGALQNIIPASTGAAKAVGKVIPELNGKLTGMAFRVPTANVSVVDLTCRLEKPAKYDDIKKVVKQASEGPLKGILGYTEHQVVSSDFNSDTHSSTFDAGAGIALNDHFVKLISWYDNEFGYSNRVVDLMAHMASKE
# [2] = microbe, parasite or virus in culture; assay type: functional; conditions: Mycobacterium tuberculosis
# [3] = ZM109 Env clade C HIV-1 fusion inhibitors, dose response, HeLa effector, CEM target cells, luciferase, cherry-pick (AID 652058); assay type: functional, cell-based
# [4] = inhibitors of clade B AD8 Env fusion, dose response, cell-based, cherry-pick (AID 652062); assay type: functional;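 note: luciferase signal from cell-cell fusion driven by HIV-1 clade B AD8 Env; potency is for inhibitors of fusion seen as a drop in luminescence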
# Vero [5] = experiment: cells; assay type: functional, cell-based; conditions: Chlorocebus sabaeus
# [6] = molecular target: T2, Heat shock factor protein 1 (Mus musculus, UniProt P38532); experiment: inhibition of MG132-induced HSE-luciferase signal, confirmation, cell-based, NIH3T3, luminescence, dose retest (AID 2382); assay type: functional;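 note: NIH3T3 fibroblasts with HSF1-driven luciferase reporter stressed by proteasome inhibitor MG132; luminescence from HSF1-driven luciferase expression after 8 hours of MG132 stress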
# T2 sequence (P38532 whole entry): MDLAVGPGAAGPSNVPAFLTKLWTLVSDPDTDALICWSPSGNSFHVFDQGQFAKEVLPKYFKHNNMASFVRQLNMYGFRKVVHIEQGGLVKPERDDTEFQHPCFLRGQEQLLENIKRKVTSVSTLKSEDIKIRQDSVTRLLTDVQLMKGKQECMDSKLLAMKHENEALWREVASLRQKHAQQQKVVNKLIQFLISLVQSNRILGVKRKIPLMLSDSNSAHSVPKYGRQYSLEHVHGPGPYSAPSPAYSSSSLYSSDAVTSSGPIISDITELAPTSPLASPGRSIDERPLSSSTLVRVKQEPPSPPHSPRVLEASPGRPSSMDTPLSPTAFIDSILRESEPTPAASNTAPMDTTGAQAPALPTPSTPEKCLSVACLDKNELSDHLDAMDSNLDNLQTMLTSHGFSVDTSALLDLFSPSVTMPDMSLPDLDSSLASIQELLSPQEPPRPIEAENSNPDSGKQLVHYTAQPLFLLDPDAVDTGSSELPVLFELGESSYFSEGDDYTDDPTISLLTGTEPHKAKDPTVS
# [7] = Shn3 3'UTR reporter inhibitors, dose response, cell-based, Clone20 osteoblasts, firefly luciferase, cherry-picked (AID 624132); assay type: functional;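 note: firefly luciferase luminescence from reporter carrying the Shn3 3'UTR in osteoblasts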
# [8] = A549 cell cytotoxicity, dose response, cytotoxicity control, plate reader, cherry-pick, antagonist series (AID 743412); assay type: functional, cell-based
# [9] = HepG2 cell cytotoxicity, dose response, cytotoxicity control, plate reader, cherry-pick, antagonist series (AID 743416); assay type: functional, cell-based
# [10] = LGR2 antagonists, dose response, cell-based, HEK293, CRE-luciferase reporter, cherry pick, set 2 (AID 743343); assay type: functional;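 note: transfected cells were stimulated with diluted bursicon conditioned medium after compound addition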
# [11] = MC4R antagonists, dose response, counter-screen for LGR2 antagonist project, cell-based, plate reader, cherry pick (AID 743444); assay type: functional;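 note: transfected HEK 293 cells stimulated with alpha-MSH peptide; potency of inhibitors of the alpha-MSH evoked signal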
# [12] = HEK293 cell cytotoxicity, dose response, cytotoxicity control, plate reader, cherry-picked samples (AID 743446); assay type: functional, cell-based
# BJ [13] = experiment: cytotoxicity toward BJ-TERT fibroblasts, dose response, cell-based, RAS-independent, luminescence (AID 1933); assay type: functional; conditions: Homo sapiens
# BJ [14] = experiment: cells; assay type: functional, cell-based; conditions: Homo sapiens
# BJ [15] = experiment: cytotoxicity toward BJ-TERT-LT-ST fibroblasts, dose response, cell-based, RAS-independent, luminescence (AID 1935); assay type: functional; conditions: Homo sapiens;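 note: BJ fibroblasts immortalized with TERT plus LT and ST oncogenes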
# [16] = cytotoxicity toward DRD oncogenic fibroblasts, dose response, cell-based, non-viral oncogenic, luminescence (AID 1934); assay type: functional; conditions: Homo sapiens
# Vero [17] = experiment: cells; assay type: functional; conditions: Chlorocebus sabaeus
# [18] = inhibitors of firefly luciferase expression or activity, dose response, H4 neuroglioma cells, luminescence (AID 1990); assay type: functional, cell-based
# [19] = Luminescence Cell-Based Dose Response HTS to Identify Inhibitors of 5'UTR Stem-Loop Driven Prion Protein mRNA Translation in H4 Neuroglioblastoma Cells. [Related pubchem assays: 1827 (Project Summary), 1813 (Primary HTS)]; assay type: functional
# [20] = inhibitors of SNCA 5'UTR-driven reporter translation, confirmation, H4 neuroglioma cells, luminescence (AID 1988); assay type: functional, cell-based
# [21] = molecular target: T3, Microphthalmia-associated transcription factor (Homo sapiens, UniProt O75030); experiment: TRPM1 promoter luciferase signal decrease, dose response, MITF inhibitor project, cell-based, SK-MEL-5, cherry-picked, set 3 (AID 493073); assay type: functional
# T3 sequence (O75030 whole entry): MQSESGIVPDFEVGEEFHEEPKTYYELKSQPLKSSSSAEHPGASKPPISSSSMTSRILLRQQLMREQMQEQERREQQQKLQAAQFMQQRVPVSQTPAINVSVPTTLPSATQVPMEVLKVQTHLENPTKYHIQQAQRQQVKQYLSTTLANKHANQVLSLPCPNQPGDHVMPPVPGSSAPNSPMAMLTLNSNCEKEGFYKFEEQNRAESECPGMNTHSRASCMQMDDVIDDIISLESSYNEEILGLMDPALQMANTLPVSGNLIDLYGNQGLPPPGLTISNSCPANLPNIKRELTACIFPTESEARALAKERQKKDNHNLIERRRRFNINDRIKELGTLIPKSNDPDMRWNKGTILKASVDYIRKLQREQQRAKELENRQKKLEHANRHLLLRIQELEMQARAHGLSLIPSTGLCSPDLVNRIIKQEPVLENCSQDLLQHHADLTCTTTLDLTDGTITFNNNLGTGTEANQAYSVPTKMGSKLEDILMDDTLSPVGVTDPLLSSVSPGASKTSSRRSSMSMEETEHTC
# Cytochrome P450 2D6 = Cytochrome P450 2D6 (Homo sapiens, UniProt P10635);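 note: CYP2D6 member of a cytochrome P450 panel assay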
# Sequence of Cytochrome P450 2D6 (P10635 whole entry): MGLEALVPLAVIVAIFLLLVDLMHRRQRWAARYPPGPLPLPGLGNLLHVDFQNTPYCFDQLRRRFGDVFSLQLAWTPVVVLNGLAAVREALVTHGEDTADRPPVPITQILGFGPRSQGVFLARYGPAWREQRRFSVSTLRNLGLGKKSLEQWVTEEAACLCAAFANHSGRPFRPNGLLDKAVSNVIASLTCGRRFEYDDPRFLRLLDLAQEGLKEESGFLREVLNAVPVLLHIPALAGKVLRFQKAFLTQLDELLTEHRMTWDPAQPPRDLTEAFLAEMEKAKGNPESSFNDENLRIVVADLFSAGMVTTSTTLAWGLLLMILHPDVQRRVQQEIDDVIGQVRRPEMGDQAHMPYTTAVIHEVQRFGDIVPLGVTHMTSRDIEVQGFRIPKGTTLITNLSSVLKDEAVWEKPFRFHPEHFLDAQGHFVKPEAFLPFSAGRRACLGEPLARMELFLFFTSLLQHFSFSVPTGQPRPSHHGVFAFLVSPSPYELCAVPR
# [22] = molecular target: Ras and Rab interactor 1/Tyrosine-protein kinase ABL1 (Homo sapiens, UniProt P00519+Q13671); assay type: functional;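 note: biochemical TR-FRET dose-response test measuring inhibition of binding between Rin1 and Abl proteins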
# Sequence of Ras and Rab interactor 1/Tyrosine-protein kinase ABL1 (P00519 whole entry): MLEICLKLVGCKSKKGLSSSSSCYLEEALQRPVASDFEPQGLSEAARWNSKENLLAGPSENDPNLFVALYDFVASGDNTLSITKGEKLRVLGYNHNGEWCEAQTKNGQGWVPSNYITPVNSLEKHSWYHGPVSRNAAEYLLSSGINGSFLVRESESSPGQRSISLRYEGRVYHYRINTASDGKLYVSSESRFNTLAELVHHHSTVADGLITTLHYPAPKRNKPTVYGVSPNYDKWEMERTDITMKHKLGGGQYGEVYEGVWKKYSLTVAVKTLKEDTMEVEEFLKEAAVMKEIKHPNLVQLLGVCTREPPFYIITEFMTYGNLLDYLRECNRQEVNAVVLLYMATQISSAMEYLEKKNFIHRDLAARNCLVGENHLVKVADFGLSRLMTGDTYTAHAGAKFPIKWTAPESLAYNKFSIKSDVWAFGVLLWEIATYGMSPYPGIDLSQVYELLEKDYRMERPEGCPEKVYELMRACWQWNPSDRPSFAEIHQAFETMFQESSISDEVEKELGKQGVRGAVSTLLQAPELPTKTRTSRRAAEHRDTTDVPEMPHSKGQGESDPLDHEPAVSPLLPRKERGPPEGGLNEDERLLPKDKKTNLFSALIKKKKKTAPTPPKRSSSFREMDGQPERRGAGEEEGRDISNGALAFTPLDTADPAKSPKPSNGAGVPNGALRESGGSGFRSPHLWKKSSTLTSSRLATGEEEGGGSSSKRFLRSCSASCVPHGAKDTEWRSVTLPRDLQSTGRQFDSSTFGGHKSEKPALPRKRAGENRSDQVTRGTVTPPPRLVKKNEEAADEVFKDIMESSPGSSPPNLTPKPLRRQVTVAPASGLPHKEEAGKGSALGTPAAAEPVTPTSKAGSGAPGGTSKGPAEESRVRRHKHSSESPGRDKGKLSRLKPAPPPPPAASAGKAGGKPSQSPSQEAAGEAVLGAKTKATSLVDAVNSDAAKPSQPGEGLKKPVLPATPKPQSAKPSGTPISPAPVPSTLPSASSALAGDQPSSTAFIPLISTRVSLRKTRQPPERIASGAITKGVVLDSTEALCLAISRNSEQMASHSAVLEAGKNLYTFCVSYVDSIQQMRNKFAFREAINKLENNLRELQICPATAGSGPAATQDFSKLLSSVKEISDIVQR
# Sequence of Ras and Rab interactor 1/Tyrosine-protein kinase ABL1 (Q13671 whole entry): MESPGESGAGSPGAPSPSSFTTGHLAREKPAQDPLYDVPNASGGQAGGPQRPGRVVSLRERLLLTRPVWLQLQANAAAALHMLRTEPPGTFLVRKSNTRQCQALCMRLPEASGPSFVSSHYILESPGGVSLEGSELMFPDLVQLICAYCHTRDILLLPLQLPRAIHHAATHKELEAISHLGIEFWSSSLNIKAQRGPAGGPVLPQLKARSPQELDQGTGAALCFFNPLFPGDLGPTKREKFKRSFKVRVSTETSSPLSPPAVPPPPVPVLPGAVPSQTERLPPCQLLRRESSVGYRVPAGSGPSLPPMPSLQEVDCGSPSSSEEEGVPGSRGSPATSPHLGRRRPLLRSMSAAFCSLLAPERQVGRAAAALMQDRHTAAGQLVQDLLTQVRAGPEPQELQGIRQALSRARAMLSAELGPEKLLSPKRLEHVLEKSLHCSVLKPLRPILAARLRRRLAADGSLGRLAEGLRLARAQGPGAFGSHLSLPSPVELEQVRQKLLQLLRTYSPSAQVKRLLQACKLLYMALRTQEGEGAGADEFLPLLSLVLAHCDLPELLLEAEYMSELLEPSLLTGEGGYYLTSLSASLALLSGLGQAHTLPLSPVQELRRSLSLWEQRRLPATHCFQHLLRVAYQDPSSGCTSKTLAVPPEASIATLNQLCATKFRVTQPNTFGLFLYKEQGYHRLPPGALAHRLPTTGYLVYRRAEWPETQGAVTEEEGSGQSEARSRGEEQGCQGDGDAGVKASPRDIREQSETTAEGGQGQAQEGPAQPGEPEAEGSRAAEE
# Nonstructural protein 1 = Nonstructural protein 1 (Influenza A virus, UniProt Q194T2); assay type: functional, Influenza A virus (A/California/07/2009(H1N1))
# Sequence of Nonstructural protein 1 (Q194T2 whole entry): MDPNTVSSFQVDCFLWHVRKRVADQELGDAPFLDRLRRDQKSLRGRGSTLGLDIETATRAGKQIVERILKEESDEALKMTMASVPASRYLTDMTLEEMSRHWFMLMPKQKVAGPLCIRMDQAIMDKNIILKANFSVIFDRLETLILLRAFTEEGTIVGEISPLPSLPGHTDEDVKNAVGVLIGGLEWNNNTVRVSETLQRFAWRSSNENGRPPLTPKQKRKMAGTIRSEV
# Sequence of Cytochrome P450 2C19 (P33261 whole entry): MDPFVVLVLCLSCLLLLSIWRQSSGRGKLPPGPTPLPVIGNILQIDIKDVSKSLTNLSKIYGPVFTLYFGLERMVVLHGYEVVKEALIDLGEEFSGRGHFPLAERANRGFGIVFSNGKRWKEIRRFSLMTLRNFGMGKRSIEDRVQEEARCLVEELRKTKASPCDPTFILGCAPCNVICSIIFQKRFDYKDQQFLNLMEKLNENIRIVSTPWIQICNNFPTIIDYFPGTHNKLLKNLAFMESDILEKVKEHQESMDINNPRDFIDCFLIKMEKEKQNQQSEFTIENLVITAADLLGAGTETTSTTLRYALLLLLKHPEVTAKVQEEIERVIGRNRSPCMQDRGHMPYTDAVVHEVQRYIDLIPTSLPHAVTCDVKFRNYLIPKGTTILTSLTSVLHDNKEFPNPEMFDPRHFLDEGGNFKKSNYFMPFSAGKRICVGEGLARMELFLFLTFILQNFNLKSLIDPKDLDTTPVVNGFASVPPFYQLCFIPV
structure (smiles),measurement,setting,value
C=CCNC(=S)N/N=C/c1ccc(-c2cc(Cl)ccc2Cl)o1,AC50,Cytochrome P450 2C19,3.16 µM (inconclusive)
same,AC50,Cytochrome P450 3A4,10 µM (inconclusive)
same,AC50,Cytochrome P450 2C9,inconclusive
COc1ccc(CCC(=O)Nc2ccc(S(=O)(=O)Nc3nccc(C)n3)cc2)cc1,AC50,Caspase-6,47.1 µM (active)
COc1cc(S(=O)(=O)Nc2cccnc2)c(OC)cc1Br,IC50,[1],> 100 µM (not active)
COc1ccc(NC(=O)c2ccc(Cl)c(S(=O)(=O)N3CCc4ccccc4C3)c2)cn1,CC50,[2],> 40 µM (active)
same,AC50,[3],1.95 µM (active)
same,AC50,[4],19.4 µM (active)
O=C1C2CCCN2C(c2ccc(F)cc2)N1c1ccc(Cl)cc1 (centres undefined),IC50,Vero [5],> 25 µM (active)
COc1ccc(-c2nsc3c(N4CCCCC4C)ncnc23)cc1 (centres undefined),EC50,[6],< 0.16 µM (active)
same,AC50,[7],< 0.26 µM (active)
same,AC50,[8],> 52 µM (inactive)
same,AC50,[9],> 52 µM (inactive)
same,AC50,[10],0.135 µM (active)
same,AC50,[11],0.134 µM (active)
same,AC50,[12],> 52 µM (inactive)
COc1ccccc1CN(C)C(=O)CN1CCN(C(=O)c2cccs2)CC1,AC50,[3],32.8 µM (active)
CC1(C)CCSC(/C=C/c2ccccc2)=N1,EC50,BJ [13],7.83 µM (active)
same,EC50,BJ [14],143 µM (active)
same,EC50,BJ [15],12.4 µM (active)
same,EC50,[16],8.6 µM (active)
same,IC50,Vero [5],19.2 µM (active)
same,CC50,Vero [17],18.5 µM (active)
COc1ccc(C(=O)Nc2ccc(C)cn2)c(OC)c1,EC50,[18],1.15 µM (active)
same,EC50,[19],28.2 µM (active)
same,EC50,[20],0.307 µM (active)
same,AC50,[21],3.7 µM (active)
CCOc1ccc(NC(=O)Cn2nnc(C(=O)NCc3ccccc3OC)c2N)cc1,AC50,Cytochrome P450 2C19,5.01 µM (inconclusive)
same,AC50,Cytochrome P450 2C9,inconclusive
COc1ccccc1OCCCCCc1c(C)n[nH]c1C,AC50,Cytochrome P450 2C19,1.58 µM (inconclusive)
same,AC50,Cytochrome P450 2D6,11.2 µM (inconclusive)
same,AC50,Cytochrome P450 2C9,inconclusive
COc1ccc(CN(C)CCCn2ccc(NC(=O)OCc3ccccc3)nc2=O)cc1OC,IC50,[22],23.5 µM (inactive)
CCCCN1C(=O)NC2NC(=O)NC21 (centres undefined),IC50,Nonstructural protein 1,> 100 µM (active)
same,IC50,[22],0.905 µM (active)
COc1ccc2c(-c3cc4ccc(OCc5ccc(F)cc5)cc4oc3=O)cc(=O)oc2c1,EC50,BJ [13],3.13 µM (active)
same,EC50,BJ [14],> 150 µM (not active)
same,EC50,BJ [15],7.45 µM (inconclusive)
same,EC50,[16],8.57 µM (active)
